The values that follow come from US6613794B2, “Hydroxyindoles, their use as inhibitors of phosphodiesterase 4 and processes for their preparation” (Arzneimittelwerk Dresden GmbH, priority 1998, dated 2003).

In data set [1] the test system is LPS-induced pulmonary neutrophil infiltration. As to the kind of experiment: LPS-induced pulmonary neutrophil infiltration in ferrets. The class given is in vivo. The settings on record: for inhibition of LPS-induced neutrophilia: powder with lactose, 2 hours before LPS. As to the method: The inhibition of lipopolysaccharide (LSP)-induced pulmonary neutrophil infiltration by the substance is investigated in an in vivo test on male ferrets (0.6-2 kg). The experimental animals are anaesthetized with pentobarbital sodium (40 mg/kg of body weight i.p.), placed individually into a closed nebulization box of 5 l capacity and exposed to an ultrasonically nebulized aerosol of 0.01% strength LPS (lipopolysaccharide) solution (additionally 0.1% hydroxylamine in PBS) for 10 minutes. The aerosol is generated by a nebulizer driven with compressed air (0.2 Mpa). Control animals are treated with an aerosol of physiological saline solution. The animals are observed during the entire process and removed from the nebulization box after admission of fresh air. On inhalation, nebulized LPS immediately induces inflammation of the airways, which is characterized by a massive infiltration of neutrophilic granulocytes into the lungs of the experimental animals. The neutrophilia achieves its maximum 4 to 6 hours after LPS exposure. In order to be able to measure the number of infiltrated neutrophilic granulocytes, the animals are anaesthetized with an overdose of ethylurethane (1.5 g/kg of body weight i.p.) 6 hours after LPS provocation and a bronchoalveolar lavage (BAL) is carried out using 2×10 ml of physiological saline solution. The number of cells in the pooled original BAL fluid (100 μl) are determined using the automatic cell-counting apparatus sold by Bayer Diagnostic under the trade designation Technicon HIE and the different leucocytes per μl are differentiated. In each test, 2 control groups (nebulization with physiological saline solution or with LPS solution) are included. Substances having anti-inflammatory activity, particularly those which affect TNFα release or the function of the neutrophilic granulocytes, inhibit the infiltration of leucocytes. The inhibition of infiltration is determined by the comparison of the number of infiltrated neutrophils in untreated experimental animals (with and without LPS provocation).
For intrapulmonary administration, the trachea of the animals is opened under anaesthesia with 40 mg/kg i.p. of pentobarbital sodium, 3% strength, 1.3 ml/kg, a 7 cm-long PVC catheter is tied in and the test substances are administered intrapulmonarily in powder form (mixed with lactose to 20 mg/kg) by means of a syringe 2 hours before LPS provocation. The intrapulmonary administration of Example 1 in doses of 1, 3 and 10 mg/kg inhibits LPS-induced neutrophilia in a dose-dependent manner (43%, 65% and 100%).

Data set [2] relates to LPS-induced TNFα release in human blood. As to the kind of experiment: LPS-induced TNFα release in human blood. The class given is cell-based. Particulars: human blood diluted 1:5, LPS 10 μg/ml, 24 hours. The text has this:
The stimulation of isolated leucocytes to cytokine release can take place in various ways. Lipopolysaccharides (LPSs) are a stimulus suitable for the investigation of TNFα release. LPS is a constituent of the bacterial cell walls and is released by killing the bacteria (antibiotics or immune system). LPS particularly stimulates the activity of the phagocytizing leucocytes (tissue macrophages, granulocytes, monocytes) and causes the infiltration of leucocytes from the blood stream into the affected tissue. A cytokine important for these mechanisms is TNFα, which is secreted in large amounts by the affected cells (the monocytes and macrophages are the main source) and initiates and maintains inflammation alongside other mediators.
For the investigation of the effect on LPS-induced TNFα release, human blood was obtained from various donors (inhibition of coagulation by means of citrate) and diluted 1:5 with RPMI 1640 cell culture medium. The test substances were added to the samples in various concentrations before the LPS challenge. […] After incubation of the test batches for 24 hours at 37° C. and under 5% CO2 in an incubator, the diluted blood was centrifuged and the TNFα concentration in the cell-free supernatant was measured by means of ELISA.

Data set [3] relates to LPS-induced pulmonary neutrophilia. The data set can be described thus: LPS-induced pulmonary neutrophilia in domestic pigs. The class given is in vivo. Particulars: intrapulmonary administration of 10 mg/animal. As to the method: Pulmonary neutrophilia can be induced with LPS in domestic pigs in a manner similar to that in the ferret. The animals are anaesthetized with pentobarbital 10 mg/kg i.v., and intubated. Using a bronchoscope, a partial bronchoalveolar lavage is carried out in order to determine the proportion of neutrophilic granulocytes under physiological conditions. The test substance is then administered and the animals inhale an ultrasonically nebulized aerosol of 0.03% strength LPS (lipopolysaccharide) solution (additionally 0.1% hydroxylamine in PBS) through the tracheal tube for 20 min. The inhaled LPS induces a reactive inflammation of the airways and neutrophilic granulocytes infiltrate on a huge scale. The neutrophilia achieves its maximum 4 to 6 hours after LPS exposure. After 6 hours, the bronchoalveolar lavage is repeated and the increase in the neutrophil count is determined arithmetically.

In general, melting point refers to the temperature of the solid-liquid transition. Regarding `CC(C)n1cc(C(=O)C(=O)Nc2c(Cl)cncc2Cl)c2cc(O)ccc21`, the melting point fell in the range of 245 to 247 °C.
Turning to `COc1ccc(C(=O)Nc2c(Cl)cncc2Cl)cc1OC1CCCC1` [RPR-73401, reference compound], the “inhibition of neutrophilia in the BAL” value in data set [1] (1 mg/kg i.p.) was determined as 49%.
Take `O=C(Nc1c(Cl)cncc1Cl)C(=O)c1cn(CC2CCCC2)c2ccc(O)cc12`: the melting point was in the range of 246 to 248 °C.
Usually IC50 stands for the concentration that gives 50% inhibition. A high value points to a need for much substance. Consider `O=C(Nc1c(Cl)cncc1Cl)C(=O)c1cn(Cc2ccc(F)cc2)c2ccc(O)cc12` [Example 1, N-(3,5-Dichloropyridin-4-yl)-2-[1-(4-fluorobenzyl)-5-hydroxyindol-3-yl]-2-oxoacetamide], for which the IC50 in data set [2] is 0.8 µM. Also, the “inhibition of neutrophilia in the BAL” value in data set [1] (1 mg/kg i.p.) is on record as 18%; in data set [1] (3 mg/kg i.p.), 64%; in data set [1] (10 mg/kg i.p.) it was 78%. The figures for the “inhibition of LPS-induced neutrophilia” value in data set [1] (1 mg/kg intrapulmonary), in data set [1] (3 mg/kg intrapulmonary) and in data set [1] (10 mg/kg intrapulmonary) were 43%, 65% and 100%, respectively. Moreover, the “ID50, inhibition of LPS-induced neutrophilia in BAL” value in data set [1] (i.p., 2 hours before LPS provocation) is 2.4 mg/kg. Moreover, the “ID50, inhibition of LPS-induced neutrophilia” value in data set [1] (intrapulmonary administration (printed i.palm.)) is listed as 1.65 mg/kg. Also, the “inhibition of LPS-induced pulmonary neutrophilia” value in data set [3] is 51%.
For the molecule `O=C(Nc1c(Cl)cncc1Cl)C(=O)c1cn(Cc2c(F)cccc2F)c2ccc(O)cc12`, the melting point is 266 to 268 °C.
Still for that read-out and setting: with `O=C(Nc1c(Cl)cc(C(F)(F)F)cc1Cl)C(=O)c1cn(Cc2ccc(F)cc2)c2ccc(O)cc12` the figure was 199 to 201 °C; with `O=C(Nc1c(Cl)cncc1Cl)C(=O)c1cn(Cc2ccc(F)cc2)c2cc(O)ccc12`, 212 to 213 °C; with `O=C(Nc1c(Cl)cc(OC(F)(F)F)cc1Cl)C(=O)c1cn(Cc2ccc(F)cc2)c2ccc(O)cc12`, 176 to 178 °C.
On to `CCCn1cc(C(=O)C(=O)Nc2c(Cl)cncc2Cl)c2cc(O)ccc21`, for which the melting point is 280 to 282 °C.
In the case of `COc1ccc([C@]2(C#N)CC[C@@H](C(=O)O)CC2)cc1OC1CCCC1` [SB 207499, reference compound], 7 µM corresponded to half-maximal inhibition in data set [2] (IC50).
`COc1ccc(Cn2cc(C(=O)Nc3c(Cl)cncc3Cl)c3cc(O)ccc32)cc1` yielded a melting point of 239 to 241 °C.
On the same count and under the same terms, the result for `O=C(Nc1c(Cl)cccc1Cl)C(=O)c1cn(Cc2ccc(F)cc2)c2ccc(O)cc12` reads 216 to 218 °C.
